In PMC5651055, “Effects of Resveratrol on the Structure and Catalytic Function of Bovine Liver catalase (BLC): Spectroscopic and Theoretical Studies” (Advanced Pharmaceutical Bulletin, 2017):
pIC50: −log10 of the molar value.

Target: T1, Bovine liver catalase (BLC) (Bos taurus, UniProt P00432)
T1 construct: gene CAT; native homotetramer from bovine liver (Sigma-Aldrich)
T1 sequence (P00432 2-527): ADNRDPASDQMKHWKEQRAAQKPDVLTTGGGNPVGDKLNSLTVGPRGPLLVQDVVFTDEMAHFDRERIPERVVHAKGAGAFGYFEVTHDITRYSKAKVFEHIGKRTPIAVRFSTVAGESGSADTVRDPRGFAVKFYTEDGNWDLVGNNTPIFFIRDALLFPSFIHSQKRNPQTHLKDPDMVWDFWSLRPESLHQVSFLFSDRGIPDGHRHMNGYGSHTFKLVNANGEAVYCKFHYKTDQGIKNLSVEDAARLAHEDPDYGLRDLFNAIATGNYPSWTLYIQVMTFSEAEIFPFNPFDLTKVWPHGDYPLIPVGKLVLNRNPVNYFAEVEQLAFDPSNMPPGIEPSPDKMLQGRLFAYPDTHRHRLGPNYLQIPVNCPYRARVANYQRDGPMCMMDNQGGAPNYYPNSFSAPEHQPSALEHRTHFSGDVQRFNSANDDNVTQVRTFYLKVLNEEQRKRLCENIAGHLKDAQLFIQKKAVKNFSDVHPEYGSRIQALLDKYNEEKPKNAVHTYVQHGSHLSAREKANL
Test: H2O2 decomposition at A240 with purified BLC; supported by fluorescence quenching (K =[…] ^-1 at […] °C, n = […])
Assay type: biochemical

Oc1ccc(/C=C/c2cc(O)cc(O)c2)cc1 [tRES, trans resveratrol]
pIC50: 5.09
